Data on eleven molecules can be found in patent US9074014B2 (Ipsen Pharma S.A.S., priority 2008, dated 2015).

The nature of data set [1]: Rat plasma half-life assay. Format: in vitro ADME. Set-up: half-life: dose or concentration left out as unconfirmed. The conditions noted are these: for half-life at 0.1 mg/ml: rat plasma, 37° C., LC-MS, read-out: Rat Plasma T½ (converted).
Data set [2] is described as follows: Human plasma half-life assay. It is filed as in vitro ADME.
The mark [3] stands for this setting: human plasma, 37° C., LC-MS, read-out: Human Plasma T½ (converted).

*1 amine or outer side, *2 acyl side, *3 side chain or, on linkers, in order; H or OH if unused. Where a SMILES comes first, the peptide text is derived from it. [ ]: non-standard residue; d: D form. The star is where a group is joined. Desaminotyrosyl = O=C(CCc1ccc(O)cc1)*; X2 = O=C([C@@H]1CC(O)CN1[*:1])[*:2]; Ac6c = NC1(C(=O)O)CCCCC1; Ac5c = NC1(C(=O)O)CCCC1; Aib = CC(C)(N)C(=O)O

On to `CC[C@H](C)[C@H](NC(=O)[C@H](CCCCN)NC(=O)[C@H](CC(=O)O)NC(=O)[C@H](CCSC)NC(=O)[C@H](C)NC(=O)[C@@H](NC(=O)C1(NC(=O)[C@H](Cc2ccc(O)cc2)NC(=O)[C@H](CC(=O)O)NC(=O)[C@H](CO)NC(=O)[C@@H](NC(=O)[C@H](Cc2ccccc2)NC(=O)[C@@H](NC(=O)CNC(=O)[C@@H]2CCCN2C(=O)[C@H](C)NC(=O)[C@@H](N)Cc2ccc(O)cc2)[C@@H](C)O)[C@@H](C)CC)CCCC1)[C@@H](C)CC)C(=O)N[C@@H](Cc1c[nH]cn1)C(=O)N[C@@H](CCC(N)=O)C(=O)N[C@@H](CCC(N)=O)C(=O)N[C@@H](CC(=O)O)C(=O)N[C@@H](Cc1ccccc1)C(=O)N[C@H](C(=O)N[C@@H](CC(N)=O)C(=O)N[C@@H](Cc1c[nH]c2ccccc12)C(=O)N[C@@H](CC(C)C)C(=O)N[C@@H](CC(C)C)C(=O)N[C@@H](C)C(=O)N[C@@H](CCC(N)=O)C(=O)N[C@@H](CCCCN)C(=O)NCC(=O)N[C@@H](CCCCN)C(=O)N[C@@H](CCCCN)C(=O)N[C@@H](CC(N)=O)C(=O)N[C@@H](CC(=O)O)C(=O)N[C@@H](Cc1c[nH]c2ccccc12)C(=O)N[C@@H](CCCCN)C(=O)N[C@@H](Cc1c[nH]cn1)C(=O)N[C@@H](CC(N)=O)C(=O)N[C@H](C(=O)N[C@H](C(=O)N[C@@H](CCC(N)=O)C(=O)O)[C@@H](C)O)[C@@H](C)CC)C(C)C` [Example 77, (Pro^3, A5c^11)hGIP(1-42)-OH], for which the half-life at 0.1 mg/ml in data set [1] was 1.5 h; in data set [2] (setting [3]) it was 43.3 h.
As for `CC[C@H](C)[C@H](NC(=O)[C@H](CCCCN)NC(=O)[C@H](CC(=O)O)NC(=O)C1(NC(=O)[C@H](C)NC(=O)[C@@H](NC(=O)C2(NC(=O)[C@H](Cc3ccc(O)cc3)NC(=O)[C@H](CC(=O)O)NC(=O)[C@H](CO)NC(=O)[C@@H](NC(=O)[C@H](Cc3ccccc3)NC(=O)[C@@H](NC(=O)CNC(=O)[C@@H]3CCCCN3C(=O)[C@H](C)NC(=O)[C@@H](N)Cc3ccc(O)cc3)[C@@H](C)O)[C@@H](C)CC)CCCC2)[C@@H](C)CC)CCCCC1)C(=O)N[C@@H](Cc1c[nH]cn1)C(=O)N[C@@H](CCC(N)=O)C(=O)N[C@@H](CCC(N)=O)C(=O)N[C@@H](CC(=O)O)C(=O)N[C@@H](Cc1ccccc1)C(=O)N[C@H](C(=O)N[C@@H](CC(N)=O)C(=O)N[C@@H](Cc1c[nH]c2ccccc12)C(=O)N[C@@H](CC(C)C)C(=O)N[C@@H](CC(C)C)C(=O)N[C@@H](C)C(=O)N[C@@H](CCC(N)=O)C(=O)N[C@@H](CCCCN)C(=O)NCC(=O)N[C@@H](CCCCN)C(=O)N[C@@H](CCCCN)C(=O)N[C@@H](CC(N)=O)C(=O)N[C@@H](CC(=O)O)C(=O)N[C@@H](Cc1c[nH]c2ccccc12)C(=O)N[C@@H](CCCCN)C(=O)N[C@@H](Cc1c[nH]cn1)C(=O)N[C@@H](CC(N)=O)C(=O)N[C@H](C(=O)N[C@H](C(=O)N[C@@H](CCC(N)=O)C(=O)O)[C@@H](C)O)[C@@H](C)CC)C(C)C` [Example 83, (hPro^3, A5c^11, A6c^14)hGIP(1-42)-OH], the half-life at 0.1 mg/ml is 1.1 h in data set [1] and 32.4 h in data set [2] (setting [3]).
Consider `CC[C@H](C)[C@H](NC(=O)[C@H](CCCCN)NC(=O)[C@H](CC(=O)O)NC(=O)C1(NC(=O)[C@H](C)NC(=O)[C@@H](NC(=O)C2(NC(=O)[C@H](Cc3ccc(O)cc3)NC(=O)[C@H](CC(=O)O)NC(=O)[C@H](CO)NC(=O)[C@@H](NC(=O)[C@H](Cc3ccccc3)NC(=O)[C@@H](NC(=O)CNC(=O)[C@@H]3CC(O)CN3C(=O)[C@H](C)NC(=O)[C@@H](N)Cc3ccc(O)cc3)[C@@H](C)O)[C@@H](C)CC)CCCC2)[C@@H](C)CC)CCCCC1)C(=O)N[C@@H](Cc1c[nH]cn1)C(=O)N[C@@H](CCC(N)=O)C(=O)N[C@@H](CCC(N)=O)C(=O)N[C@@H](CC(=O)O)C(=O)N[C@@H](Cc1ccccc1)C(=O)N[C@H](C(=O)N[C@@H](CC(N)=O)C(=O)N[C@@H](Cc1c[nH]c2ccccc12)C(=O)N[C@@H](CC(C)C)C(=O)N[C@@H](CC(C)C)C(=O)N[C@@H](C)C(=O)N[C@@H](CCC(N)=O)C(=O)N[C@@H](CCCCN)C(=O)NCC(=O)N[C@@H](CCCCN)C(=O)N[C@@H](CCCCN)C(=O)N[C@@H](CC(N)=O)C(=O)N[C@@H](CC(=O)O)C(=O)N[C@@H](Cc1c[nH]c2ccccc12)C(=O)N[C@@H](CCCCN)C(=O)N[C@@H](Cc1c[nH]cn1)C(=O)N[C@@H](CC(N)=O)C(=O)N[C@H](C(=O)N[C@H](C(=O)N[C@@H](CCC(N)=O)C(=O)O)[C@@H](C)O)[C@@H](C)CC)C(C)C` (stereo partly shown) [Example 88, (4Hyp^3, A5c^11, A6c^14)hGIP(1-42)-OH], for which the half-life at 0.1 mg/ml in data set [1] is 4.4 h; in data set [2] (setting [3]) it was more than 48 h.
For `CC[C@H](C)[C@H](NC(=O)[C@H](CO)NC(=O)[C@H](Cc1ccc(O)cc1)NC(=O)[C@H](CC(=O)O)NC(=O)[C@H](CO)NC(=O)C1(NC(=O)[C@H](Cc2ccccc2)NC(=O)[C@@H](NC(=O)CNC(=O)[C@@H]2CCCN2C(=O)C(C)(C)NC(=O)[C@@H](N)Cc2ccc(O)cc2)[C@@H](C)O)CCCCC1)C(=O)N[C@@H](C)C(=O)N[C@@H](CCSC)C(=O)N[C@@H](CC(=O)O)C(=O)N[C@@H](CCCCN)C(=O)N[C@H](C(=O)N[C@@H](Cc1c[nH]cn1)C(=O)N[C@@H](CCC(N)=O)C(=O)N[C@@H](CCC(N)=O)C(=O)N[C@@H](CC(=O)O)C(=O)N[C@@H](Cc1ccccc1)C(=O)N[C@H](C(=O)N[C@@H](CC(N)=O)C(=O)N[C@@H](Cc1c[nH]c2ccccc12)C(=O)N[C@@H](CC(C)C)C(=O)N[C@@H](CC(C)C)C(=O)N[C@@H](C)C(=O)N[C@@H](CCC(N)=O)C(=O)N[C@@H](CCCCN)C(N)=O)C(C)C)[C@@H](C)CC` [Example 109, (Aib^2, Pro^3, A6c^7)hGIP(1-30)-NH2] the same measures were 47.8 h and 27.2 h.
In the case of `CC[C@H](C)[C@H](NC(=O)[C@H](CCCCN)NC(=O)[C@H](CC(=O)O)NC(=O)[C@H](CCSC)NC(=O)[C@H](C)NC(=O)[C@@H](NC(=O)C1(NC(=O)[C@H](Cc2ccc(O)cc2)NC(=O)[C@H](CC(=O)O)NC(=O)[C@H](CO)NC(=O)[C@@H](NC(=O)[C@H](Cc2ccccc2)NC(=O)[C@@H](NC(=O)CNC(=O)[C@@H]2CCCN2C(=O)C(C)(C)NC(=O)[C@@H](N)Cc2ccc(O)cc2)[C@@H](C)O)[C@@H](C)CC)CCCC1)[C@@H](C)CC)C(=O)N[C@@H](Cc1c[nH]cn1)C(=O)N[C@@H](CCC(N)=O)C(=O)N[C@@H](CCC(N)=O)C(=O)N[C@@H](CC(=O)O)C(=O)N[C@@H](Cc1ccccc1)C(=O)N[C@H](C(=O)N[C@@H](CC(N)=O)C(=O)N[C@@H](Cc1c[nH]c2ccccc12)C(=O)N[C@@H](CC(C)C)C(=O)N[C@@H](CC(C)C)C(=O)N[C@@H](C)C(=O)N[C@@H](CCC(N)=O)C(=O)N[C@@H](CCCCN)C(N)=O)C(C)C` [Example 110, (Aib^2, Pro^3, A5c^11)hGIP(1-30)-NH2] (H-Y[Aib]PGTFISDY[Ac5c]IAMDKIHQQDFVNWLLAQK-NH2; N-terminus assumed), the half-life at 0.1 mg/ml is 25.8 h in data set [1] and 13.7 h in data set [2] (setting [3]).
For `CCCC[C@H](NC(=O)[C@H](C)NC(=O)[C@@H](NC(=O)C1(NC(=O)[C@H](Cc2ccc(O)cc2)NC(=O)[C@H](CC(=O)O)NC(=O)[C@H](CO)NC(=O)[C@@H](NC(=O)[C@H](Cc2ccccc2)NC(=O)[C@@H](NC(=O)CNC(=O)[C@@H]2CCCN2C(=O)C(C)(C)NC(=O)[C@@H](N)Cc2ccc(O)cc2)[C@@H](C)O)[C@@H](C)CC)CCCC1)[C@@H](C)CC)C(=O)N[C@@H](CC(=O)O)C(=O)N[C@@H](CCCCN)C(=O)N[C@H](C(=O)N[C@@H](Cc1c[nH]cn1)C(=O)N[C@@H](CCC(N)=O)C(=O)N[C@@H](CCC(N)=O)C(=O)N[C@@H](CC(=O)O)C(=O)N[C@@H](Cc1ccccc1)C(=O)N[C@H](C(=O)N[C@@H](CC(N)=O)C(=O)N[C@@H](Cc1c[nH]c2ccccc12)C(=O)N[C@@H](CC(C)C)C(=O)N[C@@H](CC(C)C)C(=O)N[C@@H](C)C(=O)N[C@@H](CCC(N)=O)C(=O)N[C@@H](CCCCN)C(N)=O)C(C)C)[C@@H](C)CC` [Example 111, (Aib^2, Pro^3, A5c^11, Nle^14)hGIP(1-30)-NH2] the same measures were more than 54 h and more than 54 h.
For `CC[C@H](C)[C@H](NC(=O)[C@H](CCCCN)NC(=O)[C@H](CC(=O)O)NC(=O)C1(NC(=O)[C@H](C)NC(=O)[C@@H](NC(=O)C2(NC(=O)[C@H](Cc3ccc(O)cc3)NC(=O)[C@H](CC(=O)O)NC(=O)[C@H](CO)NC(=O)[C@@H](NC(=O)[C@H](Cc3ccccc3)NC(=O)[C@@H](NC(=O)CNC(=O)[C@@H]3CCCN3C(=O)C(C)(C)NC(=O)[C@@H](N)Cc3ccc(O)cc3)[C@@H](C)O)[C@@H](C)CC)CCCC2)[C@@H](C)CC)CCCCC1)C(=O)N[C@@H](Cc1c[nH]cn1)C(=O)N[C@@H](CCC(N)=O)C(=O)N[C@@H](CCC(N)=O)C(=O)N[C@@H](CC(=O)O)C(=O)N[C@@H](Cc1ccccc1)C(=O)N[C@H](C(=O)N[C@@H](CC(N)=O)C(=O)N[C@@H](Cc1c[nH]c2ccccc12)C(=O)N[C@@H](CC(C)C)C(=O)N[C@@H](CC(C)C)C(=O)N[C@@H](C)C(=O)N[C@@H](CCC(N)=O)C(=O)N[C@@H](CCCCN)C(N)=O)C(C)C` [Example 112, (Aib^2, Pro^3, A5c^11, A6c^14)hGIP(1-30)-NH2] (H-Y[Aib]PGTFISDY[Ac5c]IA[Ac6c]DKIHQQDFVNWLLAQK-NH2; N-terminus assumed) the same measures were more than 72 h and 59.7 h.
In the case of “Desaminotyrosyl-AEGTFISDYSI[Aib]MDKIHQQDFVNWLLAQKGKKNDWKHNITQ-OH [Example 101, (4Hppa^1, Aib^13)hGIP(1-42)-OH]”, the values for the half-life at 0.1 mg/ml in data set [1] and in data set [2] (setting [3]) were 13.4 h and 47.5 h, respectively.
As for “H-YAPGTFISDYSIAMDKIHQQDFVNWLLAQKGKKNDWKHNITQ-OH [[Pro^3]hGIP(1-42)-OH, reference compound]”, the half-life in data set [1] (rat, plasma, same experimental conditions as Table 2, read-out: rat plasma half-life (converted)) was 0.8 h. Further, in data set [2] (human, plasma, same experimental conditions as Table 2, read-out: human plasma half-life (converted)), the half-life at 0.1 mg/ml is 10.8 h.
For “H-YA[X2]GTFISDYSIA[Ac6c]DKIHQQDFVNWLLAQKGKKNDWKHNITQ-OH [Example 84, (4Hyp^3, A6c^14)hGIP(1-42)-OH]”, the half-life at 0.1 mg/ml in data set [1] is 1.9 h; in data set [2] (setting [3]), 3.3 h.
For “H-YA[X2]GTFISDY[Ac5c]IAMDKIHQQDFVNWLLAQKGKKNDWKHNITQ-OH [Example 87, (4Hyp^3, A5c^11)hGIP(1-42)-OH]” the same measures were 3.4 h and 38.7 h.
